Source: article PMC11781366 (Immunity, 2023)

What was measured:
[1] = molecular target: T1, D. melanogaster STING (dSTING) (Drosophila melanogaster, UniProt A0A0B4LFY9); experiment: microscale thermophoresis in lysates of transfected S2 cells; type: biochemical
T1 sequence (A0A0B4LFY9 1-343): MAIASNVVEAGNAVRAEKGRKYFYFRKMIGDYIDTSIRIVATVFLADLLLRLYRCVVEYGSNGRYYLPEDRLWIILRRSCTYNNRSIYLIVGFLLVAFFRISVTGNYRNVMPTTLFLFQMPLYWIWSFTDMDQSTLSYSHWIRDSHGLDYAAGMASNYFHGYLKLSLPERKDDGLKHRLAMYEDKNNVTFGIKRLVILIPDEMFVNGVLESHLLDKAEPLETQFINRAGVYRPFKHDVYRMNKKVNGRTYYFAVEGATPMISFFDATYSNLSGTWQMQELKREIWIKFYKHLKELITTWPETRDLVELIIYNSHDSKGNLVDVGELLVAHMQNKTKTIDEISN

[2] = tested on: D. serrata STING; experiment: as above; type: biochemical, Drosophila serrata

With `Nc1nc2c(ncn2[C@@H]2O[C@@H]3COP(=O)(O)O[C@@H]4[C@H](O)[C@@H](COP(=O)(O)O[C@H]3[C@H]2O)O[C@H]4n2cnc3c(=O)[nH]c(N)nc32)c(=O)[nH]1` [2′3′-c-di-GMP] the Kd [1] was 28.2 µM and the Kd [2] was 36.7 µM.
